Here are results for 31 compounds from patent US9669028B2, “Substituted 5-(pyrazin-2-yl)-1H-pyrazolo [3, 4-B] pyridine and pyrazolo [3, 4-B] pyridine derivatives as protein kinase inhibitors” (Arrien Pharmaceuticals LLC, priority 2011, dated 2017).

Broadly, the pIC50 is the negative decadic logarithm of the IC50, by convention in mol/L. Low readings indicate a high IC50, high ones a low IC50.

Type in all cases: biochemical
Assay [1] concerns the target LRRK2 G2019S (Homo sapiens (Human), UniProt Q5S007, G2019S). The assay is described as follows: LRRK2 G2019S Kinase Assay. The conditions noted are these: 10 μM ATP. The protocol: Procedure: Enzyme was incubated with substrate peptide in reaction buffer in the presence and absence of test compounds or Staurosporine. All additions were done on ice, followed by the addition of ATP mix. Wells were uniformly mixed using an Eppendorff plate shaker and incubated at 30° C. for 20 min, and stopped by the addition of 5 μl of 3% phosphoric acid. Volume was increased to 100 μl by adding 0.8% phosphoric acid which was then transferred to PC filter mats (Millipore), pre-equilibrated with 70% ethanol and water. Plates were washed thrice with 100 μl 0.8% phosphoric acid and dried for an hour at 60° C. 100 μl scintillation fluid was added into each well and reading taken in Perkin Elmer TOPCOUNT beta counter. […] A validation EC50 curve was generated by plotting CPM for each Staurosporine concentration on y-axis against the Log concentration of Staurosporine (nM) on the x-axis followed by a best fit curve through the points.
After 1 hour Kinase Reaction incubation, 5 μL of Detection Mix was added.

Assay [2] addresses LRRK2 (Homo sapiens (Human), UniProt Q5S007). The assay is described as follows: LRRK2 Kinase Assay. The following applies: 10 μM ATP. As to the method: (§1) Briefly, specific kinase/substrate pairs along with required cofactors were prepared in reaction buffer; 20 mM Hepes (pH 7.5), 10 mM MgCl2, 1 mM EGTA, 0.02% Brij35, 0.02 mg/ml BSA, 0.1 mM Na3VO4, 2 mM DTT, 1% DMSO. Compounds were delivered into the reaction, followed ˜20 min later by addition of a mixture of ATP (Sigma) and 33P ATP (PerkinElmer) to a final concentration of 10 μM. […] IC50 values and curve fits were obtained using Prism (GraphPad Software). Kinome tree representations were prepared using Kinome Mapper (http://www.reactionbiology.com/apps/kinome/mapper/Launch Kinome.htm).
For the wild type LRRK the 2×LRRK2/ERM (LRRKtide) mixture was prepared in 50 mM Tris pH 8.5, 0.01% BRIJ-35, 10 mM MgCl2, 1 mM EGTA, 0.02% NaN3. […] After 1 hour Kinase Reaction incubation, 5 μL of Detection Mix was added.

For assay [3], the target named is DYRK1A (Homo sapiens (Human), UniProt Q13627). Briefly: In vitro DYRK1A inhibition assay. As to the method: as §1
The 2×DYRK1A/Ser/Thr 18 mixture was prepared in 50 mM HEPES pH 7.5, 0.01% BRIJ-35, 10 mM MgCl2, 1 mM EGTA.

pIC50: −log10 of the molar value.

Sequence of LRRK2 G2019S (Q5S007 970-2527 G2019S): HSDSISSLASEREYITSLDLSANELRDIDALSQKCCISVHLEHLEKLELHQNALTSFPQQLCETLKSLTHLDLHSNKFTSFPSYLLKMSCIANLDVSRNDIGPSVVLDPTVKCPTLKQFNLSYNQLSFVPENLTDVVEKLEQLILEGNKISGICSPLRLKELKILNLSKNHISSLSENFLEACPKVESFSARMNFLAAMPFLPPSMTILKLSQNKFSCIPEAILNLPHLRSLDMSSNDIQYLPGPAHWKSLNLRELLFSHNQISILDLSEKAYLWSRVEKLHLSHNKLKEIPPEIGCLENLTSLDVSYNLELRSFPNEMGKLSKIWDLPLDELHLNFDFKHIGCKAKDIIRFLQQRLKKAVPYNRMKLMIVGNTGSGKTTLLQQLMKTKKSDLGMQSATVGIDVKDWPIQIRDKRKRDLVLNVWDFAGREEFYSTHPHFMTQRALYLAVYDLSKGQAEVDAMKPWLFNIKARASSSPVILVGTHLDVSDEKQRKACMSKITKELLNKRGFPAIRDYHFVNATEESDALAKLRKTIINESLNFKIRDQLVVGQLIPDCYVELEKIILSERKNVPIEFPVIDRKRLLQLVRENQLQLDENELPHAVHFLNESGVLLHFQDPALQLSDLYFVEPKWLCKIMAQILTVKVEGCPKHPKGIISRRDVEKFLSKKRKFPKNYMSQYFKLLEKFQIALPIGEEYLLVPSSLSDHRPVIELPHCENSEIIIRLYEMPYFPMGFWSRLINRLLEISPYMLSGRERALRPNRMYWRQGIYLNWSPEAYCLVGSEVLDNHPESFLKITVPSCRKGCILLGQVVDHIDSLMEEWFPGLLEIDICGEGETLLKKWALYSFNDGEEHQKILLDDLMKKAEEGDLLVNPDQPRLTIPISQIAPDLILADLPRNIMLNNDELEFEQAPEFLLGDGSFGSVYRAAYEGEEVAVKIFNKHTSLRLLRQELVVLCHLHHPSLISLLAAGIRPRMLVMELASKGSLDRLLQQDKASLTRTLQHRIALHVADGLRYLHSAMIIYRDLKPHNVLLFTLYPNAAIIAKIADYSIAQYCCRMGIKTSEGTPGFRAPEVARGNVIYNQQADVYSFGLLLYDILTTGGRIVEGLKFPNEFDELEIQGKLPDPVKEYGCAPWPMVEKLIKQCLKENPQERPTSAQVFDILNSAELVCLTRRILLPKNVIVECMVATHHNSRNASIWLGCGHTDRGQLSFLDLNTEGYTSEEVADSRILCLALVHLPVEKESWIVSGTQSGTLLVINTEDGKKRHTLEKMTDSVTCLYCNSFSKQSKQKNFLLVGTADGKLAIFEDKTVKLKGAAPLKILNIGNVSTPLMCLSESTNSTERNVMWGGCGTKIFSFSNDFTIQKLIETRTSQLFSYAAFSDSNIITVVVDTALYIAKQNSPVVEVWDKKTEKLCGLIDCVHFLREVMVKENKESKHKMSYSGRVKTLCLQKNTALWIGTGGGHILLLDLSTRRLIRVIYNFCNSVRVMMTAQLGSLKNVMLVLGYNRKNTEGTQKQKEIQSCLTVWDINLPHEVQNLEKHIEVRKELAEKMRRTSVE
Sequence of LRRK2 (Q5S007 970-2527): as the sequence (Q5S007 970-2527 G2019S) above, with S1050G counted along it

On to `Cn1cc(-c2cnc3[nH]ncc3c2)cn1` [Compound 117, 5-(1-methyl-1H-pyrazol-4-yl)-1H-pyrazolo[3,4-b]pyridine], for which the pIC50 in assay [1] and in assay [2] was less than 6.00 in each case.
`COc1ccccc1-c1n[nH]c2ncc(-c3ccsc3)cc12` [Compound 183, 3-(2-methoxyphenyl)-5-(thiophen-3-yl)-1H-pyrazolo[3,4-b]pyridine]: the negative-log IC50 (pIC50) in assay [3], in assay [1] and in assay [2] was greater than 6.30 in each case.
In the case of `CN1CC(Nc2cncc(-c3cnc4[nH]ccc4c3)n2)C1` [Compound 130, N-(1-methylazetidin-3-yl)-6-(1H-pyrrolo[2,3-b]pyridin-5-yl)pyrazin-2-amine], the negative logarithm of the IC50 (pIC50) in assay [1] and in assay [2] was less than 6.30 in each case.
For the compound `Cc1n[nH]c2ncc(-c3nccnc3N3CCCC3)cc12` [Compound 74, 3-methyl-5-(3-(pyrrolidin-1-yl)pyrazin-2-yl)-1H-pyrazolo[3,4-b]pyridine], the negative logarithm of the IC50 (pIC50) in assay [1] and in assay [2] was less than 6.00 each time.
Consider `CN(C)CCNc1cncc(-c2cnc3[nH]ccc3c2)n1` [Compound 127, N1-(6-(1H-pyrrolo[2,3-b]pyridin-5-yl)pyrazin-2-yl)-N2,N2-dimethylethane-1,2-diamine], for which the negative-log IC50 (pIC50) in assay [3], in assay [1] and in assay [2] was less than 6.30 each time.
Consider `Cc1n[nH]c2ncc(-c3cncc(NCCN(C)C)n3)cc12` [Compound 68, N^1,N^1-dimethyl-N2-(6-(3-methyl-1H-pyrazolo[3,4-b]pyridin-5-yl)pyrazin-2-yl)ethane-1,2-diamine], for which the pIC50 in assay [3] is less than 6.00; in assay [1], greater than 6.30; in assay [2], greater than 6.30.
`OCCN1CCN(c2cncc(-c3cnc4[nH]ccc4c3)n2)CC1` [Compound 126, 2-(4-(6-(1H-pyrrolo[2,3-b]pyridin-5-yl)pyrazin-2-yl)piperazin-1-yl)ethanol]: the negative-log IC50 (pIC50) in assay [3], in assay [1] and in assay [2] was greater than 6.30 throughout.
`Cc1n[nH]c2ncc(-c3cccc(NC4CCN(C)CC4)n3)cc12` [Compound 102, 6-(3-methyl-1H-pyrazolo[3,4-b]pyridin-5-yl)-N-(1-methylpiperidin-4-yl)pyridin-2-amine]: the pIC50 in assay [3], in assay [1] and in assay [2] was less than 6.30 throughout.
As for `C=CC(=O)Nc1cccc(-c2cnc3[nH]nc(C)c3c2)c1` [Compound 155, N-(3-(3-methyl-1H-pyrazolo[3,4-b]pyridin-5-yl)phenyl)acrylamide], the pIC50 in assay [1] and in assay [2] was less than 6.00 in each case.
As to `CN(CC1CCOCC1)c1cncc(-c2cnc3[nH]ccc3c2)n1` [Compound 143, N-methyl-6-(1H-pyrrolo[2,3-b]pyridin-5-yl)-N-((tetrahydro-2H-pyran-4-yl)methyl)pyrazin-2-amine], the negative logarithm of the IC50 (pIC50) in assay [3], in assay [1] and in assay [2] was greater than 6.30 each time.
For the compound `Cc1n[nH]c2ncc(-c3cccc(CN4CCN(C)CC4)c3)cc12` [Compound 123, 3-methyl-5-(3-((4-methylpiperazin-1-yl)methyl)phenyl)-1H-pyrazolo[3,4-b]pyridine], the pIC50 in assay [1] and in assay [2] was less than 6.00 throughout.
As to `Cc1n[nH]c2ncc(-c3cncc(NC4CCN(C)C4)n3)cc12` (stereo not shown) [Compound 51, 6-(3-methyl-1H-pyrazolo[3,4-b]pyridin-5-yl)-N-(1-methylpyrrolidin-3-yl)pyrazin-2-amine], the values for the pIC50 in assay [3], in assay [1] and in assay [2] were less than 6.00, less than 6.30 and less than 6.30, respectively.
With `CN1CCN(Cc2cccc(-c3cnc4[nH]ccc4c3)c2)CC1` [Compound 152, 5-(3-((4-methylpiperazin-1-yl)methyl)phenyl)-1H-pyrrolo[2,3-b]pyridine], the pIC50 in assay [3], in assay [1] and in assay [2] was greater than 6.30 throughout.
Consider `Cc1n[nH]c2ncc(Nc3cccc(CN4CCN(CCO)CC4)c3)cc12` [Compound 164, 2-(4-(3-((3-methyl-1H-pyrazolo[3,4-b]pyridin-5-yl)amino)benzyl)piperazin-1-yl)ethanol], for which the negative-log IC50 (pIC50) in assay [1] and in assay [2] was less than 6.00 in each case.
For the compound `O=C(c1cncc(-c2cnc3[nH]ccc3c2)n1)N1CCCCC1` [Compound 138, (6-(1H-pyrrolo[2,3-b]pyridin-5-yl)pyrazin-2-yl)(piperidin-1-yl)methanone], the pIC50 in assay [1] and in assay [2] was less than 6.30 in each case.
Consider `Cc1n[nH]c2ncc(-c3cccc(CC#N)c3)cc12` [Compound 158, 2-(3-(3-methyl-1H-pyrazolo[3,4-b]pyridin-5-yl)phenyl)acetonitrile], for which the pIC50 in assay [1] and in assay [2] was less than 6.00 in each case.
As to `Cc1n[nH]c2ncc(Nc3ccc(CN4CCN(C)CC4)cc3)cc12` [Compound 167, 3-methyl-N-(4-((4-methylpiperazin-1-yl)methyl)phenyl)-1H-pyrazolo[3,4-b]pyridin-5-amine], the negative logarithm of the IC50 (pIC50) in assay [1] and in assay [2] was less than 6.00 each time.
In the case of `CC(=O)Nc1cccc(-c2cnc3[nH]nc(C)c3c2)c1` [Compound 114, N-(3-(3-methyl-1H-pyrazolo[3,4-b]pyridin-5-yl)phenyl)acetamide], the negative logarithm of the IC50 (pIC50) in assay [1] and in assay [2] was less than 6.00 in each case.
Take `CN1CCC(Nc2cncc(-c3cnc4[nH]cc(Cl)c4c3)n2)CC1` [Compound 141, 6-(3-chloro-1H-pyrrolo[2,3-b]pyridin-5-yl)-N-(1-methylpiperidin-4-yl)pyrazin-2-amine]: the pIC50 in assay [1] and in assay [2] was greater than 6.30 in each case.
With `Cc1n[nH]c2ncc(Nc3ccc(N4CCN(C)CC4)c(F)c3)cc12` [Compound 170, N-(3-fluoro-4-(4-methylpiperazin-1-yl)phenyl)-3-methyl-1H-pyrazolo[3,4-b]pyridin-5-amine], the pIC50 in assay [1] and in assay [2] was less than 6.00 throughout.
Regarding `Cc1n[nH]c2ncc(-c3cccc(S(=O)(=O)N(C)C)c3)cc12` [Compound 111, N, N-dimethyl-3-(3-methyl-1H-pyrazolo[3,4-b]pyridin-5-yl)benzenesulfonamide], the negative-log IC50 (pIC50) in assay [1] and in assay [2] was less than 6.00 in each case.
Regarding `Cc1n[nH]c2ncc(-c3cncc(Cl)n3)cc12` [Compound 42, 5-(6-chloropyrazin-2-yl)-3-methyl-1H-pyrazolo[3,4-b]pyridine], the pIC50 in assay [1] and in assay [2] was less than 6.00 each time.
With `Cc1n[nH]c2ncc(-c3cnccn3)cc12` [Compound 45, 3-methyl-5-(pyrazin-2-yl)-1H-pyrazolo[3,4-b]pyridine], the pIC50 in assay [1] and in assay [2] was less than 6.00 in each case.
Take `Cc1n[nH]c2ncc(Nc3cncc(Cl)n3)cc12` [Compound 171, N-(6-chloropyrazin-2-yl)-3-methyl-1H-pyrazolo[3,4-b]pyridin-5-amine]: the pIC50 in assay [1] and in assay [2] was less than 6.00 each time.
As for `Cc1n[nH]c2ncc(-c3cncnc3NC3CCN(C)CC3)cc12` [Compound 19, 5-(3methyl-1H-pyrazolo[3,4-b]pyridine-5yl)-N-(1-methylpiperidine-4yl)pyrimidin-4-amine], the pIC50 in assay [1] and in assay [2] was less than 6.30 throughout.
In the case of `CCOC(=O)c1cccc(-c2cnc3[nH]nc(C)c3c2)c1` [Compound 119, ethyl 3-(3-methyl-1H-pyrazolo[3,4-b]pyridin-5-yl)benzoate], the pIC50 in assay [1] and in assay [2] was less than 6.00 in each case.
Regarding `O=C1CN(c2cncc(-c3cnc4[nH]ccc4c3)n2)CCN1` [Compound 133, 4-(6-(1H-pyrrolo[2,3-b]pyridin-5-yl)pyrazin-2-yl)piperazin-2-one], the negative-log IC50 (pIC50) in assay [1] and in assay [2] was less than 6.30 throughout.
For the compound `CN1CCN(C(=O)c2cncc(-c3cnc4[nH]ccc4c3)n2)CC1` [Compound 139, (6-(1H-pyrrolo[2,3-b]pyridin-5-yl)pyrazin-2-yl)(4-methylpiperazin-1-yl)methanone], the pIC50 in assay [1] and in assay [2] was less than 6.00 each time.
With `Cc1n[nH]c2ncc(-c3ccc(N4CCN(C)CC4)cc3)cc12` [Compound 161, 3-methyl-5-(4-(4-methylpiperazin-1-yl)phenyl)-1H-pyrazolo[3,4-b]pyridine], the pIC50 in assay [1] and in assay [2] was less than 6.00 each time.
Consider `CN1CCC(Nc2cncc(-c3cnc4[nH]ccc4c3)n2)CC1` [Compound 140, N-(1-methylpiperidin-4-yl)-6-(1H-pyrrolo[2,3-b]pyridin-5-yl)pyrazin-2-amine], for which the negative logarithm of the IC50 (pIC50) in assay [1] and in assay [2] was greater than 6.30 throughout.
For the compound `Cc1n[nH]c2ncc(NC3CCCN(Cc4ccc(F)c(F)c4)C3)cc12` (stereo not shown) [Compound 26], the negative logarithm of the IC50 (pIC50) in assay [1] and in assay [2] was less than 6.30 throughout.
